For orientation: IC50 means the point on the concentration scale where inhibition reaches its midpoint. Low values mean greater potency, high ones weaker potency.

Structures are written as SMILES.

From patent publication US7427626B2, “2-Anilino-4-(imidazol-5-yl)-pyrimidine derivatives and their use as cdk (cdk2) inhibitors” (AstraZeneca AB, priority 2003, dated 2008) come the findings set out here.

The assay has as its target T1, CDK2/Cyclin E (Homo sapiens, UniProt P24941).
T1 construct: The open reading frames of CDK2 and Cyclin E were isolated; made in house; host or cells: Spodoptera frugiperda SF21 insect cells with baculovirus co-infection (CDK2 and cyclin E); E. coli BL21 (DE3) pLysS (GST-Rb substrate)
As to the kind of experiment: in vitro kinase assay, Scintillation Proximity Assay, incorporation of [γ-33-P]-ATP into GST-Rb. Format: biochemical. The conditions noted are these: CDK2/Cyclin E partially-purified enzyme, GST-Rb substrate, 0.2 μM ATP, 60 minutes at room temperature. Here is the method:
The compounds were tested in an in vitro kinase assay in 96 well format using Scintillation Proximity Assay (SPA—obtained from Amersham) for measuring incorporation of [γ-33-P]-Adenosine Triphosphate into a test substrate (GST-Retinoblastoma protein; GST-Rb). In each well was placed the compound to be tested (diluted in DMSO and water to correct concentrations) and in control wells either roscovitine as an inhibitor control or DMSO as a […] control.
Approximately 0.2 μl of CDK2/Cyclin E partially-purified enzyme (amount dependent on enzyme activity) diluted in 25 μl incubation buffer was added to each well then 20 μl of GST-Rb/ATP/ATP33 mixture (containing 0.5 μg GST-Rb and 0.2 μM ATP and 0.14 μCi [γ-33-P]-Adenosine Triphosphate in incubation buffer), and the resulting mixture shaken gently, then incubated at room temperature for 60 minutes.
To each well was then added 150 μL stop solution containing (0.8 mg/well of Protein A-PVT SPA bead (Amersham)), 20 pM/well of Anti-Glutathione Transferase, Rabbit IgG (obtained from Molecular Probes), 61 mM EDTA and 50 mM HEPES pH 7.5 containing 0.05% sodium azide.
The plates were sealed with Topseal-S plate sealers, left for two hours then spun at 2500 rpm, 1124 xg., for 5 minutes. The plates were read on a Topcount for 30 seconds per well. […]
E. coli paste was resuspended in 10 ml/g of NETN buffer (50 mM Tris pH 7.5, 120 mM NaCl, 1 mM EDTA, 0.5% v/v NP-40, 1 mM PMSF, 1 ug/ml leupeptin, 1 μg/ml aprotinin and 1 ug/ml pepstatin) and sonicated for 2×45 seconds per 100 ml homogenate. […] The final product was analysed by Sodium Dodeca Sulfate (SDS) PAGE (Polyacrylamide gel) using 8-16% Tris-Glycine gels (Novex, San Diego, USA).
The open reading frames of CDK2 and Cyclin E were isolated by reverse transcriptase-PCR using HeLa cell and activated T cell mRNA as a template and cloned into the insect expression vector pVL1393 (obtained from Invitrogen 1995 catalogue number: V1392-20). […]
In general terms: Scintillation proximity formats need no separation of bound from free tracer.
`CC(C)n1c(-c2ccnc(Nc3ccccc3)n2)cnc1C(=O)c1ccccc1` [Example 6, 2-Anilino4(2-benzoyl-1-isopropylimidazol-5-yl)pyrimidine] yielded an IC50 of 65 nM.

`CC(C)n1c(-c2ccnc(Nc3ccccc3)n2)cnc1C(=O)c1ccncc1` [Example 8, 2-Anilino-4-[2-(pyridin-4-ylcarbonyl)-1-isopropylimidazol-5-yl]pyrimidine] gave an IC50 of 4 nM. As for `CC(C)n1c(-c2ccnc(Nc3ccccc3)n2)cnc1C(=O)CCc1ccccc1` [Example 9, 2-Anilino-4-[2-(3-phenylpropionyl)-1-isopropylimidazol-5-yl]pyrimidine], the IC50 was 64 nM.
